Values after ≈ are worked out from the molar mass of the structure shown. Each block holds one compound with its values, some of them ahead of it.
Key:
Aspergillus niger [1] = experiment: Antifungal activity against Aspergillus niger at 1000 ug/ml after 48 hrs by filter paper disc method; format: functional; settings: read-out: IZ
Penicillium chrysogenum = experiment: Antifungal activity against Penicillium notatum at 1000 ug/ml after 48 hrs by filter paper disc method; format: functional; settings: read-out: IZ
[2] = biological target: Calpain-1 catalytic subunit (Homo sapiens, UniProt P07384); experiment: Inhibition of human erythrocytes mu-calpain using SucLeu-Tyr-AMC as substrate
Sequence of Calpain-1 catalytic subunit (P07384 whole entry): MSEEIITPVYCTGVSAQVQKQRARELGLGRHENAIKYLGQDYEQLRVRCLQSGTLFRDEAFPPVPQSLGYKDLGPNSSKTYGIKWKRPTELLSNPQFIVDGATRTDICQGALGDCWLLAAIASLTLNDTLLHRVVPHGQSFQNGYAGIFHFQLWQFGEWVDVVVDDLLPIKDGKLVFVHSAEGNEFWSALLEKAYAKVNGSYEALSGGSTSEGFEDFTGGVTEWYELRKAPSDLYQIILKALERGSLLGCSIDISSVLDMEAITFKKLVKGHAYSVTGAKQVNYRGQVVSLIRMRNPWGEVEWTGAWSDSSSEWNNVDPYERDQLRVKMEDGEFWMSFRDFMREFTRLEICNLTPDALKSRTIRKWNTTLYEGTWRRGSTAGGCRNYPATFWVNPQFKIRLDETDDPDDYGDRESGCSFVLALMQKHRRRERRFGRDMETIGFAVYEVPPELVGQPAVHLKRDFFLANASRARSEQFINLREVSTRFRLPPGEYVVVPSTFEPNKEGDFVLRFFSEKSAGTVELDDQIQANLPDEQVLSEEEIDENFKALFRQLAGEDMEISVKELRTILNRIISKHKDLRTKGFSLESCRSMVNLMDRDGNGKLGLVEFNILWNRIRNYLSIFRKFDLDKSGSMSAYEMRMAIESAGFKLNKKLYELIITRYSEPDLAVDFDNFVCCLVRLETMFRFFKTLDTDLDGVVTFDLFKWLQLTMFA

BXPC-3 = experiment: Growth inhibition of human BxPC3 cells; format: functional
SK-N-SH = experiment: Growth inhibition of human SK-N-SH cells; format: functional
SW-1736 = experiment: Growth inhibition of human SW1736 cells; format: functional
NCI-H460 = experiment: Growth inhibition of human NCI-H460 cells; format: functional, cell-based
FaDu = experiment: Growth inhibition of human FADU cells; format: functional
DU-145 = experiment: Growth inhibition of human DU145 cells; format: functional
Tubulin = experiment: Inhibition of tubulin polymerization (unknown origin); format: protein-complex assay, Homo sapiens
[3] = system: Panel NCI-60 (60 carcinoma cell lines); experiment: Growth inhibition of human NCI60 cells; format: functional
[4] = biological target: Gamma-aminobutyric acid receptor subunit alpha-5 (Homo sapiens, UniProt P31644); experiment: Antagonist activity at human GABA-A alpha5 receptor expressed in HEK293 cell membranes assessed as inhibition of GABA-induced response preincubated for 40 mins followed by GABA addition by FLIPR assay; format: cell-based
Sequence of Gamma-aminobutyric acid receptor subunit alpha-5 (P31644 whole entry): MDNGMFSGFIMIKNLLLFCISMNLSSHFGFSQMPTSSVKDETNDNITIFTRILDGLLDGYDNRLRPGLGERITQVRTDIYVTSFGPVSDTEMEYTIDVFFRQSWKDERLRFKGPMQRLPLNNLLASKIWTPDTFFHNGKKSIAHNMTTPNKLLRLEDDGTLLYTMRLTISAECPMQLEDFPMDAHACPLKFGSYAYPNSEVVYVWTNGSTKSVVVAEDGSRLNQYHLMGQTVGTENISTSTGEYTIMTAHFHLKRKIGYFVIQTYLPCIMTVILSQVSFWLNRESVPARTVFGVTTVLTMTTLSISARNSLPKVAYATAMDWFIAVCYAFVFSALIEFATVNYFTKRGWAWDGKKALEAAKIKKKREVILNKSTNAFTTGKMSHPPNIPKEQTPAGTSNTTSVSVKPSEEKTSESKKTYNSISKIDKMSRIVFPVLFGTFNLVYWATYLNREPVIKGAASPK

[5] = biological target: Gamma-aminobutyric acid receptor subunit alpha-1 (Homo sapiens, UniProt P14867); experiment: Antagonist activity at human GABA-A alpha1 receptor expressed in HEK293 cell membranes assessed as inhibition of GABA-induced response preincubated for 40 mins followed by GABA addition by FLIPR assay; format: cell-based
Sequence of Gamma-aminobutyric acid receptor subunit alpha-1 (P14867 whole entry): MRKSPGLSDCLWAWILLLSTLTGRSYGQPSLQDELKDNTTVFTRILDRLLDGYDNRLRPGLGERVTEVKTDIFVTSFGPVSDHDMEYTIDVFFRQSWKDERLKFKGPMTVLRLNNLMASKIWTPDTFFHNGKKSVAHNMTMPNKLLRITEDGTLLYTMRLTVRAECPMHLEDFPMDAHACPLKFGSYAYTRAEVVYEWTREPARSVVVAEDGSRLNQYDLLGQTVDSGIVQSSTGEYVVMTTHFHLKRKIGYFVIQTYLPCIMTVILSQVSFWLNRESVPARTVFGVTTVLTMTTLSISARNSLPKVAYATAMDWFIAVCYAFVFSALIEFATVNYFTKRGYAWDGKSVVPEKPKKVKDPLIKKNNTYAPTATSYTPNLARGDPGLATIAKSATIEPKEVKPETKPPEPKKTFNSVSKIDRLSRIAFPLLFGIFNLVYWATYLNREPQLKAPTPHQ

Estrogen receptor [6] = biological target: T1, Estrogen receptor (Homo sapiens, UniProt P03372); experiment: Binding affinity to ERalpha (unknown origin)
T1 sequence (P03372 whole entry): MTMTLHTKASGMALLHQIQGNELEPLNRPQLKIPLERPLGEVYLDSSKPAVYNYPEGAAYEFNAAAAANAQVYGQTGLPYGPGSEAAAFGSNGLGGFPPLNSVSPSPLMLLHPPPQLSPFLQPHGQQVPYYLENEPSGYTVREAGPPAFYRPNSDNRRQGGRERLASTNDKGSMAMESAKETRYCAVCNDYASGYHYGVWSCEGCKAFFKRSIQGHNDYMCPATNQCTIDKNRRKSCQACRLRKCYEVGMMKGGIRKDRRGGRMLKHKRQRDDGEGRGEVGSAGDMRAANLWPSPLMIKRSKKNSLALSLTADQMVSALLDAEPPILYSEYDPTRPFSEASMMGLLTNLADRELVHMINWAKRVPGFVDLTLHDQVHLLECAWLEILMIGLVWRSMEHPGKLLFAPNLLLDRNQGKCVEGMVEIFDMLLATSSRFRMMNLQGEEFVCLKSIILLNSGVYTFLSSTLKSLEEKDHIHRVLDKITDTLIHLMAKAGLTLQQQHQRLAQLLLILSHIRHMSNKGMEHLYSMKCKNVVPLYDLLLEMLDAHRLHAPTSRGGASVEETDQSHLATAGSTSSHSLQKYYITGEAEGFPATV

Estrogen receptor beta = Estrogen receptor beta (Homo sapiens, UniProt Q92731); experiment: Binding affinity to ERbeta (unknown origin)
Sequence of Estrogen receptor beta (Q92731 whole entry): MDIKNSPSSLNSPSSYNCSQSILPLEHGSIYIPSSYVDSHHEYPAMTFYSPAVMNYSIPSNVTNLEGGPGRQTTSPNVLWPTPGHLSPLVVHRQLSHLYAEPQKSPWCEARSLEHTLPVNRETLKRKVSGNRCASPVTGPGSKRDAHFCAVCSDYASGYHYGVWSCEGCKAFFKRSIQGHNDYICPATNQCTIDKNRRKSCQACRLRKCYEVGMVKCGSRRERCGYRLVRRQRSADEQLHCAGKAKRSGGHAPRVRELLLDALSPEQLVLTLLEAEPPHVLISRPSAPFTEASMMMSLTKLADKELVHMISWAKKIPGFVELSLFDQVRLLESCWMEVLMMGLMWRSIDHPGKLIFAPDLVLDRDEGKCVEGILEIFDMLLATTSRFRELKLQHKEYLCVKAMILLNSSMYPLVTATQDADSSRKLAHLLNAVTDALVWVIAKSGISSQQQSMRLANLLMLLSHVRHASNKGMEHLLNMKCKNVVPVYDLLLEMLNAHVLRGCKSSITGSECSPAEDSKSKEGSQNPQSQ

Estrogen receptor [7] = biological target: T1, Estrogen receptor; experiment: Agonist activity at ER in human Ishikawa cells assessed as alkaline phosphatase induction after 72 hrs by PNPP substrate based spectophotometric method; format: cell-based
Estrogen receptor [8] = biological target: T1, Estrogen receptor; experiment: Antagonist activity at ER in human Ishikawa cells assessed as inhibition of E2-induced alkaline phosphatase induction after 72 hrs by PNPP substrate based spectophotometric method; format: cell-based
Aspergillus niger [9] = experiment: Antifungal activity against Aspergillus niger by broth dilution method; format: functional
Pseudomonas aeruginosa = experiment: Antibacterial activity against Pseudomonas aeruginosa by broth dilution method; format: functional
Aspergillus clavatus = experiment: Antifungal activity against Aspergillus clavatus by broth dilution method; format: functional

SMILES: Nc1c(C(=O)Nn2c(=O)cc(-c3ccccc3)c3ccc(O)cc32)sc2cc(F)ccc12
zone of inhibition at 1000 µg/mL (Aspergillus niger [1]): 27 mm
zone of inhibition at 1000 µg/mL (Penicillium chrysogenum): 26 mm

SMILES: NC(=O)C(=O)C(Cc1ccccc1)NC(=O)C1CCN(c2cc3ccccc3s2)CC1 (stereo not given)
Ki [2]: 0.009 µM

SMILES: COc1ccc(-c2sc3cc(OC)ccc3c2Oc2cc(OC)c(OC)c(OC)c2)cc1
GI50 (BXPC-3): 0.23 mg/L (≈ 0.508 µM)
GI50 (SK-N-SH): 0.063 mg/L (≈ 0.139 µM)
GI50 (SW-1736): 0.73 mg/L (≈ 1.61 µM)
GI50 (NCI-H460): 0.31 mg/L (≈ 0.685 µM)
GI50 (FaDu): 0.098 mg/L (≈ 0.217 µM)
GI50 (DU-145): 0.42 mg/L (≈ 0.928 µM)
IC50 (Tubulin): 0.88 µM
GI50 [3]: 0.49 µM

SMILES: Oc1ccc2c(c1)C(c1ccc(OCCN3CCCCC3)cc1)c1c(sc3cc(O)ccc13)C2 (stereo not given)
Ki (Estrogen receptor [6]): 0.0005 µM
Ki (Estrogen receptor beta): 0.0009 µM
EC50 (Estrogen receptor [7]): 0.0009 µM
IC50 (Estrogen receptor [8]): 0.053 µM

Now from value to compound:

IC50 [4]: 0.201 µM
IC50 [5]: 0.479 µM
SMILES: CC1=NN=C(c2cc3c(C(F)(F)F)cccc3s2)c2cc3oc(=O)[nH]c3cc2C1

MIC (Aspergillus niger [9]): 100 mg/L (≈ 192 µM)
MIC (Pseudomonas aeruginosa): 100 mg/L (≈ 192 µM)
MIC (Aspergillus clavatus): 100 mg/L (≈ 192 µM)
SMILES: CC1(C)CC(=O)C2=C(C1)NC(=O)NC2c1cn(C(=O)c2sc3ccc(F)cc3c2Cl)c2ccccc12 (stereo not given)
